# Test results as given in PMC12739383, “Optimization of solid-state fermentation conditions for high β-galactosidase-producing lactic acid bacteria and its application in low-lactose dairy products” (Frontiers in Bioengineering and Biotechnology, 2025).
# How the values were obtained:
# Assay type in all cases: biochemical, Lactiplantibacillus plantarum
# [1] = molecular target: T1, β-galactosidase produced by L. plantarum LP-15; assay: product inhibition kinetics; conditions: competitive, inhibited substrate not told, partially purified enzyme, read-out: Value/Range
# T1 construct: gene lacL; native enzyme from solid-state fermentation extract
# Description: product inhibition kinetics on β-galactosidase produced by L. plantarum LP-15
# [2] = tested on: T1, β-galactosidase produced by L. plantarum LP-15; assay: o-nitrophenol release at […] nm, Lineweaver-Burk, […]; conditions: optimal conditions (pH 6.5, 42 °C); 50 mM phosphate buffer; partially purified enzyme; read-out: Value/Range
# [3] = tested on: T1, β-galactosidase produced by L. plantarum LP-15; assay: initial rate kinetics; lactose read-out not told; conditions: conditions not given; partially purified enzyme; read-out: Value/Range
# Description: initial rate kinetics; lactose read-out not told on β-galactosidase produced by L. plantarum LP-15
structure (smiles),measurement,setting,value
OC[C@H]1OC(O)[C@H](O)[C@@H](O)[C@H]1O (stereo partly drawn) [galactose],Ki,[1],85 mM
"O=[N+]([O-])c1ccccc1O[C@@H]1O[C@H](CO)[C@H](O)[C@H](O)[C@H]1O [ONPG, o-Nitrophenyl-β-D-galactopyranoside]",Km,[2],2.8 ± 0.1 mM
OC[C@H]1O[C@@H](O[C@H]2[C@H](O)[C@@H](O)C(O)O[C@@H]2CO)[C@H](O)[C@@H](O)[C@H]1O (stereo partly drawn) [lactose],Km,[3],18.5 ± 0.5 mM
